Laboratory results from ChEMBL document CHEMBL3632530, “Synthesis and structure-activity relationship study of benzofuran-based chalconoids bearing benzylpyridinium moiety as potent acetylcholinesterase inhibitors” (Eur J Med Chem, 2015).
pIC50: −log10 of the molar value.

Target: Acetylcholinesterase (Torpedo californica, UniProt P04058)
Test: Inhibition of Torpedo californica AChE (type VI-S) using acetylthiocholine iodide as substrate assessed as 5-thio-2-nitrobenzoate anion formation preincubated for 15 mins followed by substrate addition
Set-up: species or system Tetronarce californica

Acetylcholinesterase, sequence (P04058 whole entry): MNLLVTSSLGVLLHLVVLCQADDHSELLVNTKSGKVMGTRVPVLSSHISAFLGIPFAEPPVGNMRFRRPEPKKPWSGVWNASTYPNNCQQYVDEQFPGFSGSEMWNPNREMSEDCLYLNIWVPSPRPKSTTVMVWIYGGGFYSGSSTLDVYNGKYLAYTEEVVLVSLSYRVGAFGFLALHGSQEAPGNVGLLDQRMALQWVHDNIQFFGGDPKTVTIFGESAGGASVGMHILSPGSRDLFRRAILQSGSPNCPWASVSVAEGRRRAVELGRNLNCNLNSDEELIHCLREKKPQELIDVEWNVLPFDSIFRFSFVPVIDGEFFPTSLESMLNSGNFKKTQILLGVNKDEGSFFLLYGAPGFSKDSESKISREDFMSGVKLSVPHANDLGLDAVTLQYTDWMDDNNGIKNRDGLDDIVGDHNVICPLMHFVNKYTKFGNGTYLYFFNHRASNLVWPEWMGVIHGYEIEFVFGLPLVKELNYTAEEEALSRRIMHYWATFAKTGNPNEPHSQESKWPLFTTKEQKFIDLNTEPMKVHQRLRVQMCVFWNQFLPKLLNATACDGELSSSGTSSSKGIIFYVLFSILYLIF

SMILES: COc1cccc2cc(C(=O)/C=C/c3ccc[n+](Cc4ccccc4)c3)oc12
- pIC50: 5.41

SMILES: O=C(/C=C/c1cc[n+](Cc2cccc(Cl)c2Cl)cc1)c1cc2ccccc2o1
- pIC50: 5.51

SMILES: O=C(/C=C/c1ccc[n+](Cc2ccccc2Br)c1)c1cc2cc(Br)ccc2o1
- pIC50: 5.67

SMILES: O=C(/C=C/c1cc[n+](Cc2ccccc2Br)cc1)c1cc2ccccc2o1
- pIC50: 7.39

SMILES: O=C(/C=C/c1ccc[n+](Cc2ccccc2)c1)c1cc2cc(Br)ccc2o1
- pIC50: 5.27

SMILES: O=C(/C=C/c1ccc[n+](Cc2ccccc2Br)c1)c1cc2ccccc2o1
- pIC50: 7.46

SMILES: O=C(/C=C/c1ccc[n+](Cc2cccc(Cl)c2Cl)c1)c1cc2cc(Br)ccc2o1
- pIC50: 5.55

SMILES: O=C(/C=C/c1ccc[n+](Cc2ccc(Br)cc2)c1)c1cc2ccccc2o1
- pIC50: 6.45

SMILES: COc1cccc2cc(C(=O)/C=C/c3ccc[n+](Cc4ccc(Br)cc4)c3)oc12
- pIC50: 4.97

SMILES: O=C(/C=C/c1cc[n+](Cc2ccccc2)cc1)c1cc2cc(Br)ccc2o1
- pIC50: 5.22

SMILES: O=C(/C=C/c1ccc[n+](Cc2ccc(Cl)c(Cl)c2)c1)c1cc2cc(Br)ccc2o1
- pIC50: 6.10

SMILES: O=C(/C=C/c1cc[n+](Cc2ccccc2)cc1)c1cc2ccccc2o1
- pIC50: 7.19

SMILES: COc1cccc2cc(C(=O)/C=C/c3ccc[n+](Cc4ccc(Cl)cc4)c3)oc12
- pIC50: 4.95

SMILES: O=C(/C=C/c1ccc[n+](Cc2ccc([N+](=O)[O-])cc2)c1)c1cc2ccccc2o1
- pIC50: 4.53

SMILES: O=C(/C=C/c1ccc[n+](Cc2ccc(Br)cc2)c1)c1cc2cc(Br)ccc2o1
- pIC50: 4.51

SMILES: COc1cccc2cc(C(=O)/C=C/c3ccc[n+](Cc4ccccc4Br)c3)oc12
- pIC50: 7.57

SMILES: COc1cccc2cc(C(=O)/C=C/c3ccc[n+](Cc4cccc(Cl)c4Cl)c3)oc12
- pIC50: 6.01

SMILES: O=C(/C=C/c1ccc[n+](Cc2ccccc2)c1)c1cc2ccccc2o1
- pIC50: 7.24
